Columns and labels:
AMPA receptors [1] = experiment: AMPA receptor binding test (in vitro autoradiography method); design: species or system SD rats; settings: acute rat brain section including the striatum; [^11C] K-2; Fig. 1
Protocol: As rats, adult male SD rats (Charles River, Japan) which were […] were used. An acute brain section which included the striatum and whose thickness was 200 µm was produced, was placed on a cell strainer and was left in an oxygenated ACSF (artificial cerebrospinal fluid) for 60 minutes. 12 ml of 100 µM PEPA (ACSF containing 1% DMSO) was adjusted, and [^11C] K-2 was added thereto so as to achieve 20 nM, and the resultant solution was left for 60 minutes. After the reaction, the resultant solution was washed with the ACSF for 10 seconds three times, and was finally washed with distilled water for 10 seconds. The cell strainer was cut out so as to be slightly larger than the brain section after the reaction, and was exposed to an imaging plate for 2 hours. The imaging plate after the exposure was imaged with Typhoon (GE Healthcare Japan) (resolution of 25 pixels).

AMPA receptors [2] = experiment: AMPA receptor binding test (electrophysiological verification, whole-cell recording of AMPA current in acute hippocampal section); type: cell-based, SD rats; settings: pyramidal cell in CA1, compound administered for 15 minutes, Fig. 2
Protocol: Male SD rats which were 7 to 8 weeks old were used. The rat was decapitated under anesthesia with isoflurane, and an acute brain section which included the hippocampus and whose thickness was 400 µm was produced with a vibratome (VT1000; Leica Camera AG). The section was left in the ACSF at room temperature for 60 minutes, and then an AMPA current was measured by a whole-cell recording method. Under conditions in which the ACSF was refluxed at a rate of 3 ml/minute, only the AMPA current was isolated by administration of picrotoxin and APV. An exciting electrode was placed on a Schaffer fiber, and a recording electrode was placed on a pyramidal cell in CA1. The whole-cell recording was performed with a potential fixed to -80 mV, and a stimulus of 100 microseconds was applied every 30 seconds. The AMPA current in a ground state was recorded for 5 minutes, then K-2 or K-4 was administered for 15 minutes and thereafter the AMPA current was recorded for 30 minutes. When the section was left and when the section was refluxed, the ACSF was saturated with 95% O2/5% CO2 and was then used, and the composition of the ACSF was as follows; 119 mM NaCl, 2.5 mM KCl, 2.5 mM CaCl2, 1.5 mM MgSO4, 26 mM NaHCO3 and 1 mM NaH2PO4. […]

WKY rat = experiment: Forced swimming test using rat; type: in vivo; settings: acute administration, intravenous, 30 minutes before test; 1.0 mg/kg; Figs. 8, 9 and 10
Protocol: In a forced swimming test, AMPA receptor-binding compounds K-2 and K-4 were dissolved in 100% DMSO (Nacalai Tesque, Inc. Japan) so as to have a concentration of 2.1 mM, were diluted with saline immediately before being administered (15% DMSO, 320 µM) and were intravenously administered to the rat with an administered amount of 5 µl/weight (g) such that the administered amount fell within a range of 1 mg/kg to 1.5 mg/kg.
In all animal experiments, the deliberation and the approval of the animal experiment committee in Yokohama City University were received (approval number: F-A-15-051). As rats, adult male Wistar rats which were 6 to 10 weeks old and Wistar Kyoto rats (WKY rats) which were depression model rats (Charles River, Japan) were used. In order to acquire a route for the repeated administration of K-2, a jugular vein cannula indwelling surgery was performed a week before the experiment. The rat was made to fall sleep with isoflurane (DS Pharma Animal Health, Japan), and thereafter while anesthesia was maintained at an isoflurane concentration of 1.5% (air 2 L/minute), the jugular vein cannula indwelling surgery was performed. The skin of the neck was incised about 3 cm such that subcutaneous fat was opened, and thus the jugular vein was exposed. A needle to which a cannula tube was fitted was made to penetrate the jugular vein, then the cannula tube was removed from the needle and the tip of the cannula tube was inserted 2.5 cm into the jugular vein so as to be fixed near the insertion portion with sutures. The opposite side of the cannula tube was exposed to the outside of the body through the back of the rat, a plug was fitted so as to prevent backflow and the opened skin was sutured. After the completion of the surgery, the rat was returned to a home cage.
The forced swimming test was performed in a pre-administration experiment on the day before the administration of the drug, in an acute administration experiment on the first day of the administration of the drug and in a chronic administration experiment on the seventh day of the administration of the drug. […]

| Kd (AMPA receptors [1]) [µM] | Compound | binding affinity to the AMPA receptors (AMPA receptors [2]) | immobility time (WKY rat) |
| --- | --- | --- | --- |
| 0.0479 | CN(CCSc1cc(F)c(OCC(N)=O)c(F)c1)S(=O)(=O)c1ccccc1 [K-2, {4-[2-(benzenesulfonyl-methyl-amino)-ethylsulfanil]-2,6-difluoro-phenoxy}-acetamide] | indicated binding affinity |  |
|  | CN(C)C(=O)COc1c(F)cc(SCCN(C)S(=O)(=O)c2ccccc2)cc1F [K-4, {4-[2-(benzenesulfonyl-methyl-amino)-ethylsulfanil]-2,6-difluoro-phenoxy}-N,N-dimethyl-acetamide] | indicated binding affinity |  |
|  | CN(C)C(=O)COc1c(F)cc(SCCN(C)S(=O)(=O)c2ccc(F)cc2)cc1F [K-26, {4-[2-(4-fluoro-benzenesulfonyl-methyl-amino)-ethylsulfanil]-2,6-difluoro-phenoxy}-N,N-dimethyl-acetamide] |  | tendency that the immobility time was lower |
|  | CCN(CC)C(=O)COc1c(F)cc(SCCN(C)S(=O)(=O)c2ccccc2)cc1F [K-30, {4-[2-(benzenesulfonyl-methyl-amino)-ethylsulfanil]-2,6-difluoro-phenoxy}-N,N-diethyl-acetamide] |  | tendency that the immobility time was lower |
|  | CNC(=O)COc1c(F)cc(SCCN(C)S(=O)(=O)c2ccccc2)cc1F [K-32, {4-[2-(benzenesulfonyl-methyl-amino)-ethylsulfanil]-2,6-difluoro-phenoxy}-N-methyl-acetamide] |  | tendency that the immobility time was lower |

— patent EP3569229A1, “PROPHYLACTIC AND/OR THERAPEUTIC AGENT FOR DISEASES ASSOCIATED WITH AMPA RECEPTORS” (Public University Corporation Yokohama City University, priority 2017, dated 2018)
